Among the data in patent publication US8987314B2, “Amide, urea or sulfone amide linked benzothiazole inhibitors of endothelial lipase” (Bristol-Myers Squibb Company, priority 2012, dated 2015) are IC50 values, retold here.

One test has as its target Endothelial lipase (EL) (Homo sapiens (Human), UniProt Q9Y5X9). Description: EL assay: endothelial lipase activity with fluorescent substrate A10070 in DMPG vesicles. The class given is biochemical. An outline of the steps: (§1)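 Substrate A10070 sits in sonicated DMPG vesicles at 0.11 mole fraction. Lipase and compound preincubated 30 min, 37° C, in HEPES pH 8.0 buffer with CaCl2.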

The target in a further test is hepatic lipase (HL) (Homo sapiens (Human), UniProt P11150). The experiment in a line: HL assay: hepatic lipase activity with fluorescent substrate A10070 in DMPG vesicles. It counts as biochemical. The method, boiled down:
as §1

pIC50: −log10 of the molar value.

hepatic lipase (HL), sequence (P11150 23-499, species assumed): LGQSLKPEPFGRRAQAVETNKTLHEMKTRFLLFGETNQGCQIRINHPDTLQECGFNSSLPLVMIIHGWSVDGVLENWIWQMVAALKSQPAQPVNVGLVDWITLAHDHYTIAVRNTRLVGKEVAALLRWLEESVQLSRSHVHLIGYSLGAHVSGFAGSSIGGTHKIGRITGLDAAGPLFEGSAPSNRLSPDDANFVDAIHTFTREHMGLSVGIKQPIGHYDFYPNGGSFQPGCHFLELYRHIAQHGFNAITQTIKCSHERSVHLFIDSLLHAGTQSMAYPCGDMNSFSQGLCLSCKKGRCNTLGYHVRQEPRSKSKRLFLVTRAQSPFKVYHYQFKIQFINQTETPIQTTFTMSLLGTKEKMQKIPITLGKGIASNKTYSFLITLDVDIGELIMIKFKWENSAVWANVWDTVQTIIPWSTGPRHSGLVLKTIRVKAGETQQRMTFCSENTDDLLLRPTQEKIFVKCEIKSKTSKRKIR
Endothelial lipase (EL), sequence (Q9Y5X9 21-500): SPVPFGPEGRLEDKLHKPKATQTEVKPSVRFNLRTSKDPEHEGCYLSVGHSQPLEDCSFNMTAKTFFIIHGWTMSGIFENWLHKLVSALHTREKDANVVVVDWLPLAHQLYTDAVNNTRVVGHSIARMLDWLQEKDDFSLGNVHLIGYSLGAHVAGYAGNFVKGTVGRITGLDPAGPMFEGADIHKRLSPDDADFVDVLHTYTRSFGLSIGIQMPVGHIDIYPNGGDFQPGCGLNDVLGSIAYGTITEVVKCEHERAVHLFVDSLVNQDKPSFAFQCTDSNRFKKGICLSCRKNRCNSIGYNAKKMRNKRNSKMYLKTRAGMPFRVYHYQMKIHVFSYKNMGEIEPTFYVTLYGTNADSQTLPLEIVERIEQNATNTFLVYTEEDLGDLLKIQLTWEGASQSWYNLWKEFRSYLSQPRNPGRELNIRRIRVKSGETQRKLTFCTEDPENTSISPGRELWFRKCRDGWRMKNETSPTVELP

For `CN(C)C(=O)c1ccc(-c2ccc3nc(C(C(=O)NCCS(N)(=O)=O)S(=O)(=O)Cc4ccc(OC(F)(F)F)cc4)sc3c2)cc1F` (centres unmarked) [Example B229, 2-fluoro-N,N-dimethyl-4-(2-{[(2-sulfamoylethyl)car-bamoyl][4-(trifluoro-methoxy)phenyl]methane-sulfonylmethyl}-1,3-benzothiazol-6-yl)ben-zamide], the results for the pIC50 against Endothelial lipase (EL) and on hepatic lipase (HL) were 7.53 and 6.62, respectively.
On the same counts, the results for `CN(C)C(=O)c1ccc(-c2ccc3nc(C(C(=O)NCCS(N)(=O)=O)S(=O)(=O)CCC(F)(F)F)sc3c2)cc1F` (centres unmarked) [Example B230, 2-fluoro-N,N-dimethyl-4-(2-{[(2-sulfamoylethyl)car-bamoyl](3,3,3-trifluoro-propanesulfonyl)meth-yl}-1,3-benzothiazol-6-yl)benzamide] are 8.34 and 7.43.
Turning to `COCCS(=O)(=O)C(C(=O)NCc1cc(C(C)C)no1)c1nc2ccc(-c3ccccc3)cc2s1` (centres unmarked) [Example B232, 2-(2-methoxyethane-sulfonyl)-2-(6-phenyl-1,3-benzothiazol-2-yl)-N-{[3-(propan-2-yl)-1,2-oxazol-5-yl]methyl}acetamide], the pIC50 is 7.34 on Endothelial lipase (EL) and 9.10 against hepatic lipase (HL).
Turning to `Cc1cc(CNC(=O)C(c2nc3ccc(-c4ccccc4)cc3s2)S(C)(=O)=O)on1` (centres unmarked) [Example B233], the values for the pIC50 at Endothelial lipase (EL) and at hepatic lipase (HL) were 7.50 and 8.44, respectively.
`COCCS(=O)(=O)C(C(=O)NCc1cc(C)no1)c1nc2ccc(-c3ccccc3)cc2s1` (centres unmarked) [Example B234, 2-(2-methoxyethane-sulfonyl)-N-[(3-methyl-1,2-oxazol-5-yl)methyl]-2-(6-phenyl-1,3-benzothiazol-2-yl)a-cetamide]: the pIC50 against Endothelial lipase (EL) was 8.31; on hepatic lipase (HL), 9.30.
Turning to `Cn1nccc1-c1ccc2nc(C(C(=O)NCCS(N)(=O)=O)S(C)(=O)=O)sc2c1` (centres unmarked) [Example B235, 2-methanesulfonyl-2-[6-(1-methyl-1H-pyrazol-5-yl)-1,3-benzothiazol-2-yl]-N-(2-sulfamoylethyl)a-cetamide], the values for the pIC50 against Endothelial lipase (EL) and on hepatic lipase (HL) were 8.29 and 5.52, respectively.
Regarding `CC(=O)Nc1ccc(-c2ccc3nc(C(C(=O)NCCS(N)(=O)=O)S(=O)(=O)CCC(F)(F)F)sc3c2)cc1` (centres unmarked) [Example B236, 2-[6-(4-acetamidophenyl)-1,3-benzothiazol-2-yl]-N-(2-sulfamoylethyl)-2-(3,3,3-trifluoropropane-sulfonyl)acetamide], the pIC50 was 9.10 against Endothelial lipase (EL) and 7.26 at hepatic lipase (HL).
In the case of `NS(=O)(=O)CCNC(=O)C(c1nc2ccc(-c3ccc(S(=O)(=O)NCCO)cc3)cc2s1)S(=O)(=O)Cc1ccc(F)cc1` (centres unmarked) [Example B238, 2-[(4-fluorophenyl)methane-sulfonyl]-2-(6-{4-[(2-hydroxyethyl)sulfa-moyl]phenyl}-1,3-benzothiazol-2-yl)-N-(2-sulfamoylethyl)a-cetamide], the pIC50 is 8.01 against Endothelial lipase (EL) and 6.63 against hepatic lipase (HL).
The matching figures for `COCc1ccc(-c2ccc3nc(C(C(=O)NCCS(N)(=O)=O)S(=O)(=O)CCC(F)(F)F)sc3c2)cc1` (centres unmarked) [Example B239, 2-{6-[4-(methoxymeth-yl)phenyl]-1,3-benzothiazol-2-yl}-N-(2-sulfamoyl-ethyl)-2-(3,3,3-trifluoro-propanesulfonyl)acetamide]: 8.03 and 8.14.
For the compound `NS(=O)(=O)CCNC(=O)C(c1nc2ccc(-c3ccc(CCO)cc3)cc2s1)S(=O)(=O)Cc1ccc(F)cc1` (centres unmarked) [Example B240, 2-[(4-fluorophenyl)methane-sulfonyl]-2-{6-[4-(2-hydroxyethyl)phenyl]-1,3-benzothiazol-2-yl}-N-(2-sulfamoylethyl)a-cetamide], the pIC50 at Endothelial lipase (EL) is 7.59; against hepatic lipase (HL), 7.12.
For the compound `CC(C)(O)CNC(=O)c1ccc(-c2ccc3nc(C(C(=O)NCCS(N)(=O)=O)S(C)(=O)=O)sc3c2)cc1` (centres unmarked) [Example B241, N-(2-hydroxy-2-methyl-propyl)-4-(2-{methane-sulfonyl[(2-sulfamoyl-ethyl)carbamoyl]methyl}-1,3-benzothiazol-6-yl)ben-zamide], the pIC50 was 8.19 on Endothelial lipase (EL) and 6.22 at hepatic lipase (HL).
The matching figures for `CC(C)(O)CNC(=O)c1ccc(-c2ccc3nc(C(C(=O)NCCS(N)(=O)=O)S(=O)(=O)Cc4ccc(F)cc4)sc3c2)cc1` (centres unmarked) [Example B242, 4-{2-[(4-fluorophenyl)meth-anesulfonyl[(2-sulfa-moylethyl)carbamoyl]meth-yl]-1,3-benzothiazol-6-yl}-N-(2-hydroxy-2-methylpropyl)benzamide]: 8.57 and 6.96.
Consider `NS(=O)(=O)CCNC(=O)C(c1nc2ccc(-c3cccc(Cl)c3)cc2s1)S(=O)(=O)Cc1ccc(F)cc1` (centres unmarked) [Example B243, 2-[6-(3-chlorophenyl)-1,3-benzothiazol-2-yl]-2-[(4-fluorophenyl)methanesulfon-yl]-N-(2-sulfamoylethyl)a-cetamide], for which the pIC50 against Endothelial lipase (EL) is 8.32; against hepatic lipase (HL), 8.62.
As for `COC(C)(C)CNC(=O)c1ccc(-c2ccc3nc(C(C(=O)NCCS(N)(=O)=O)S(=O)(=O)CC4CC4)sc3c2)cc1` (centres unmarked) [Example B244, 4-(2-{cyclopropylmethane-sulfonyl[(2-sulfamoyl-ethyl)carbamoyl]methyl}-1,3-benzothiazol-6-yl)-N-(2-methoxy-2-methyl-propyl)benzamide], the negative logarithm of the IC50 (pIC50) against Endothelial lipase (EL) is 9.05; against hepatic lipase (HL), 7.92.
On the same counts, the results for `NS(=O)(=O)CCNC(=O)C(c1nc2ccc(-c3ccc(CO)cc3)cc2s1)S(=O)(=O)Cc1ccc(F)cc1` (centres unmarked) [Example B245, 2-[(4-fluorophenyl)meth-anesulfonyl]-2-{6-[4-(hydroxymethyl)phenyl]-1,3-benzothiazol-2-yl}-N-(2-sulfamoylethyl)a-cetamide] are 8.68 and 6.88.
For the compound `COCCN(C)C(=O)c1ccc(-c2ccc3nc(C(C(=O)NCCS(N)(=O)=O)S(C)(=O)=O)sc3c2)cc1F` (centres unmarked) [Example B246, 2-fluoro-4-(2-{methanesul-fonyl[(2-sulfamoylethyl)car-bamoyl]methyl}-1,3-benzothiazol-6-yl)-N-(2-methoxyethyl)-N-methyl-benzamide], the negative logarithm of the IC50 (pIC50) was 8.55 on Endothelial lipase (EL) and 7.03 against hepatic lipase (HL).
The matching figures for `COCCN(C)C(=O)c1ccc(-c2ccc3nc(C(C(=O)NCCS(N)(=O)=O)S(=O)(=O)CC4CC4)sc3c2)cc1F` (centres unmarked) [Example B247, 4-(2-{cyclopropylmethane-sulfonyl[(2-sulfamoyl-ethyl)carbamoyl]methyl}-1,3-benzothiazol-6-yl)-2-fluoro-N-(2-methoxy-ethyl)-N-methylbenzamide]: 8.21 and 6.90.
The matching figures for `COCC(C)(C)NC(=O)c1ccc(-c2ccc3nc(C(C(=O)NCCS(N)(=O)=O)S(=O)(=O)CC4CC4)sc3c2)cc1` (centres unmarked) [Example B248, 4-(2-{cyclopropylmethane-sulfonyl[(2-sulfamoyl-ethyl)carbamoyl]methyl}-1,3-benzothiazol-6-yl)-N-(1-methoxy-2-methyl-propan-2-yl)benzamide]: 8.12 and 7.75.
Regarding `COCC(C)(C)NC(=O)c1ccc(-c2ccc3nc(C(C(=O)NCCS(N)(=O)=O)S(=O)(=O)Cc4ccc(OC(F)(F)F)cc4)sc3c2)cc1` (centres unmarked) [Example B249, N-(1-methoxy-2-methyl-propan-2-yl)-4-(2-{[(2-sulfamoylethyl)carbamoyl][4-(trifluoromethoxy)phen-yl]methanesulfonyl-methyl}-1,3-benzothiazol-6-yl)benzamide], the values for the pIC50 at Endothelial lipase (EL) and against hepatic lipase (HL) were 8.08 and 7.53, respectively.

A word on the pIC50: it is the IC50 on a negative log10 scale, so that one unit is a factor of ten. A higher pIC50 goes with a low IC50.
